Measurements published in US20090270350A1, “Pyridinone Pyrazole Urea and Pyrimidinone Pyrazole Urea Derivatives” (PFIZER INC., priority 2006, published 2009).

Target: p38α (Homo sapiens, UniProt Q16539)
Assay: p38α/MK2 cascade assay
Assay type: biochemical
Conditions: Table 1; inhibitors preincubated with p38α for 40 minutes; phosphorylation of Hsp27 peptide by MK-2, Caliper LabChip 3000; read-out: p38a/MK2 Cascade 40 min Pre-Incuabtion (% Inhibition): IC50
Procedure: The ability of compounds to inhibit activated p38α was determined in a p38α/MK-2 cascade assay format. The kinase activity of p38α is determined by its ability to phosphorylate/activate nonactive MK2 (54-400). Activation of MK-2 by p38α is measured by following the phosphorylation of a MK-2 specific peptide, Hsp27 peptide (FITC-KKKALSRQLSVAA). The phosphorylation of the Hsp27 peptide was quantified using the Caliper LabChip 3000. The kinase reactions were carried out in 20 mM HEPES pH 7.5, 10 mM MgCl2, 0.0005% Tween-20, 0.01% BSA, 1 mM DTT, and 2% DMSO. The inhibitors were varied between 1000-0.05 nM, while the Hsp27 peptide substrate, MgATP, and nonactive MK-2 (54-400) were held constant at 0.5 µM, 5 µM, and 1 nM, respectively. Inhibitors were preincubated with p38α for 40 minutes prior to initiating the reaction with peptide, MgATP, and MK-2. The kinase reactions were quenched after 60 minutes by the addition of stop buffer (180 mM HEPES, 30 mM EDTA, and 0.2% Coating Reagent-3).
The above protocol assay was used to determine the IC50 values for some of the compounds in the above Examples.
IC50 values were determined for the compounds listed in Table 2, using the same p38α/MK2 cascade assay used to determine the IC50 values for the compounds in Table 1. The compounds of Table 2 were prepared using methods similar to those listed in the Examples for compounds of Table 1.

Chain of p38α (Q16539 whole entry): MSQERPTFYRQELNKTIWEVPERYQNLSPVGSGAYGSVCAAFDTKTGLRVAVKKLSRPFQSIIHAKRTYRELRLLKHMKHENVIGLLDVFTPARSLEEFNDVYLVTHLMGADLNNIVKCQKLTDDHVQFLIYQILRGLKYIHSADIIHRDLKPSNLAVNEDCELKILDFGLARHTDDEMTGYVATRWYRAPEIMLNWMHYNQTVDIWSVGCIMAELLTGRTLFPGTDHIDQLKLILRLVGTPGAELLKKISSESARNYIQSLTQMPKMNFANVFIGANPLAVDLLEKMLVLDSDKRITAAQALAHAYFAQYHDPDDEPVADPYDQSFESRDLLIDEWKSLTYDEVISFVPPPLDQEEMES

Row | Compound | IC50 [nM]
1 | COc1ccc(Cn2c(C)cc(OCc3ccccc3CNC(=O)Nc3cc(C(C)(C)C)nn3-c3ccc(O)cc3)c(Cl)c2=O)cc1Cl [Example 64, 1-[3-tert-butyl-1-(4-hydroxyphenyl)-1H-pyrazol-5-yl]-3-[2-({[3-chloro-1-(3-chloro-4-methoxybenzyl)-6-methyl-2-oxo-1,2-dihydropyridin-4-yl]oxy}methyl)benzyl]urea] | 7.5
2 | COc1ccc(Cn2c(C)cc(OCc3ccccc3CNC(=O)Nc3cc(C(C)(C)C)nn3-c3cccc(O)c3)c(Cl)c2=O)cc1Cl [Example 65, 1-[3-tert-butyl-1-(3-hydroxyphenyl)-1H-pyrazol-5-yl]-3-[2-({[3-chloro-1-(3-chloro-4-methoxybenzyl)-6-methyl-2-oxo-1,2-dihydropyridin-4-yl]oxy}methyl)benzyl]urea] | 6.9
3 | COc1ccc(Cn2c(C)cc(OCc3ccccc3CNC(=O)Nc3cc(C(C)(C)C)nn3-c3ccc(O)c(Cl)c3)c(Cl)c2=O)cc1Cl [Example 66, 1-[3-tert-butyl-1-(3-chloro-4-hydroxyphenyl)-1H-pyrazol-5-yl]-3-[2-({[3-chloro-1-(3-chloro-4-methoxybenzyl)-6-methyl-2-oxo-1,2-dihydropyridin-4-yl]oxy}methyl)benzyl]urea] | 9.7
4 | COc1ccc(Cn2c(C)cc(OCc3ccccc3CNC(=O)Nc3cc(C(C)(C)C)nn3-c3ccc(Cl)c(O)c3)c(Cl)c2=O)cc1Cl [Example 67, 1-[3-tert-butyl-1-(4-chloro-3-hydroxyphenyl)-1H-pyrazol-5-yl]-3-[2-({[3-chloro-1-(3-chloro-4-methoxybenzyl)-6-methyl-2-oxo-1,2-dihydropyridin-4-yl]oxy}methyl)benzyl]urea] | 7.9
5 | COc1cc(Cn2c(C)cc(OCc3ccccc3CNC(=O)Nc3cc(C(C)(C)C)nn3-c3cccc(O)c3)c(Cl)c2=O)ccc1Cl [Example 81, 1-[3-tert-butyl-1-(3-hydroxyphenyl)-1H-pyrazol-5-yl]-3-[2-({[3-chloro-1-(4-chloro-3-methoxybenzyl)-6-methyl-2-oxo-1,2-dihydropyridin-4-yl]oxy}methyl)benzyl]urea] | 20.1
6 | COc1ccc(Cn2c(C)cc(OCc3ccccc3CNC(=O)Nc3cc(C(C)(C)C)nn3-c3ccc(C)cc3)c(Br)c2=O)cc1 [Example 101, 1-[2-({[3-bromo-1-(4-methoxybenzyl)-6-methyl-2-oxo-1,2-dihydropyridin-4-yl]oxy}methyl)benzyl]-3-[3-tert-butyl-1-(4-methylphenyl)-1H-pyrazol-5-yl]urea] | 8.19
7 | COc1ccc(Cn2c(C)cc(OCc3ccccc3CNC(=O)Nc3cc(C4CC4)nn3-c3ccccc3)c(Br)c2=O)cc1 [Example 102, 1-[2-({[3-bromo-1-(4-methoxybenzyl)-6-methyl-2-oxo-1,2-dihydropyridin-4-yl]oxy}methyl)benzyl]-3-(3-cyclopropyl-1-phenyl-1H-pyrazol-5-yl)urea] | 182
8 | Cc1cc(OCc2ccccc2CNC(=O)Nc2cc(C(C)(C)C)nn2-c2ccc(F)cc2F)c(Br)c(=O)n1Cc1ccccc1 [Example 105, 1-(2-{[(1-benzyl-3-bromo-6-methyl-2-oxo-1,2-dihydropyridin-4-yl)oxy]methyl}benzyl)-3-[3-tert-butyl-1-(2,4-difluorophenyl)-1H-pyrazol-5-yl]urea] | 8.19
9 | COc1cccc(-n2nc(C(C)(C)C)cc2NC(=O)NCc2ccccc2COc2cc(C)n(Cc3ccccc3)c(=O)c2Br)c1 [Example 109, 1-(2-{[(1-benzyl-3-bromo-6-methyl-2-oxo-1,2-dihydropyridin-4-yl)oxy]methyl}benzyl)-3-[3-tert-butyl-1-(3-methoxyphenyl)-1H-pyrazol-5-yl]urea] | 6.38
10 | CCc1c(OCc2ccccc2CNC(=O)Nc2cc(C(C)(C)C)nn2-c2ccc(C)cc2)ncn(Cc2ccccc2)c1=O [Example 110, 1-(2-{[(1-benzyl-5-ethyl-6-oxo-1,6-dihydropyrimidin-4-yl)oxy]methyl}benzyl)-3-[3-tert-butyl-1-(4-methylphenyl)-1H-pyrazol-5-yl]urea] | 14.4
11 | CCc1c(OCc2ccccc2CNC(=O)Nc2cc(C(C)(C)C)nn2-c2ccccc2)ncn(Cc2ccccc2)c1=O [Example 113, 1-(2-{[(1-benzyl-5-ethyl-6-oxo-1,6-dihydropyrimidin-4-yl)oxy]methyl}benzyl)-3-(3-tert-butyl-1-phenyl-1H-pyrazol-5-yl)urea] | 10
12 | CCc1c(OCc2ccccc2CNC(=O)Nc2cc(C(C)(C)C)nn2-c2ccc(C)cc2)ncn(Cc2ccc(OC)cc2)c1=O [Example 114, 1-[3-tert-butyl-1-(4-methylphenyl)-1H-pyrazol-5-yl]-3-[2-({[5-ethyl-1-(4-methoxybenzyl)-6-oxo-1,6-dihydropyrimidin-4-yl]oxy}methyl)benzyl]urea] | 16.3
13 | CCc1c(OCc2ccccc2CNC(=O)Nc2cc(C(C)(C)C)nn2-c2cccc(OC)c2)ncn(Cc2ccc(OC)cc2)c1=O [Example 115, 1-[3-tert-butyl-1-(3-methoxyphenyl)-1H-pyrazol-5-yl]-3-[2-({[5-ethyl-1-(4-methoxybenzyl)-6-oxo-1,6-dihydropyrimidin-4-yl]oxy}methyl)benzyl]urea] | 25.8

The next molecules have a lower IC50 than those just listed; values first:

Row | IC50 [nM] | Compound
14 | 4.6 | COc1ccc(Cn2c(C)cc(OCc3ccccc3CNC(=O)Nc3cc(C(C)(C)C)nn3-c3ccc(O)c(Cl)c3)c(Cl)c2=O)cc1 [Example 58, 1-[3-tert-butyl-1-(3-chloro-4-hydroxyphenyl)-1H-pyrazol-5-yl]-3-[2-({[3-chloro-1-(4-methoxybenzyl)-6-methyl-2-oxo-1,2-dihydropyridin-4-yl]oxy}methyl)benzyl]urea]
15 | 3.7 | COc1ccc(Cn2c(C)cc(OCc3ccc(F)cc3CNC(=O)Nc3cc(C(C)(C)C)nn3-c3cccc(OCCO)c3)c(Cl)c2=O)cc1 [Example 60, 1-{3-tert-butyl-1-[3-(2-hydroxyethoxy)phenyl]-1H-pyrazol-5-yl}-3-[2-({[3-chloro-1-(4-methoxybenzyl)-6-methyl-2-oxo-1,2-dihydropyridin-4-yl]oxy}methyl)-5-fluorobenzyl]urea]
16 | 4.5 | COc1ccc(Cn2c(C)cc(OCc3ccc(F)cc3CNC(=O)Nc3cc(C(C)(C)C)nn3-c3ccc(O)c(Cl)c3)c(Cl)c2=O)cc1 [Example 62, 1-[3-tert-butyl-1-(3-chloro-4-hydroxyphenyl)-1H-pyrazol-5-yl]-3-[2-({[3-chloro-1-(4-methoxybenzyl)-6-methyl-2-oxo-1,2-dihydropyridin-4-yl]oxy}methyl)-5-fluorobenzyl]urea]
17 | 3.9 | COc1ccc(Cn2c(C)cc(OCc3ccccc3CNC(=O)Nc3cc(C(C)(C)C)nn3-c3cccc(F)c3)c(Br)c2=O)cc1 [Example 97, 1-[2-({[3-bromo-1-(4-methoxybenzyl)-6-methyl-2-oxo-1,2-dihydropyridin-4-yl]oxy}methyl)benzyl]-3-[3-tert-butyl-1-(3-fluorophenyl)-1H-pyrazol-5-yl]urea]
18 | 4.23 | COc1ccc(Cn2c(C)cc(OCc3ccccc3CNC(=O)Nc3cc(C(C)(C)C)nn3-c3cccc(Cl)c3)c(Br)c2=O)cc1 [Example 98]
19 | 3.49 | COc1ccc(Cn2c(C)cc(OCc3ccccc3CNC(=O)Nc3cc(C(C)(C)C)nn3-c3cccc(OC)c3)c(Br)c2=O)cc1 [Example 99, 1-[2-({[3-bromo-1-(4-methoxybenzyl)-6-methyl-2-oxo-1,2-dihydropyridin-4-yl]oxy}methyl)benzyl]-3-[3-tert-butyl-1-(3-methoxyphenyl)-1H-pyrazol-5-yl]urea]
20 | 4.59 | Cc1ccc(-n2nc(C(C)(C)C)cc2NC(=O)NCc2ccccc2COc2cc(C)n(Cc3ccc(O)cc3)c(=O)c2Br)cc1 [Example 100, 1-[2-({[3-bromo-1-(4-hydroxybenzyl)-6-methyl-2-oxo-1,2-dihydropyridin-4-yl]oxy}methyl)benzyl]-3-[3-tert-butyl-1-(4-methylphenyl)-1H-pyrazol-5-yl]urea]
21 | 2.62 | Cc1cc(OCc2ccccc2CNC(=O)Nc2cc(C(C)(C)C)nn2-c2cccc(F)c2)c(Br)c(=O)n1Cc1ccccc1 [Example 103, 1-(2-{[(1-benzyl-3-bromo-6-methyl-2-oxo-1,2-dihydropyridin-4-yl)oxy]methyl}benzyl)-3-[3-tert-butyl-1-(3-fluorophenyl)-1H-pyrazol-5-yl]urea]
22 | 4.52 | Cc1cc(OCc2ccccc2CNC(=O)Nc2cc(C(C)(C)C)nn2-c2ccccc2)c(Br)c(=O)n1Cc1ccccc1 [Example 104, 1-(2-{[(1-benzyl-3-bromo-6-methyl-2-oxo-1,2-dihydropyridin-4-yl)oxy]methyl}benzyl)-3-(3-tert-butyl-1-phenyl-1H-pyrazol-5-yl)urea]
23 | 4.59 | Cc1ccc(-n2nc(C(C)(C)C)cc2NC(=O)NCc2ccccc2COc2cc(C)n(Cc3ccccc3)c(=O)c2Br)cc1 [Example 106, 1-(2-{[(1-benzyl-3-bromo-6-methyl-2-oxo-1,2-dihydropyridin-4-yl)oxy]methyl}benzyl)-3-[3-tert-butyl-1-(4-methylphenyl)-1H-pyrazol-5-yl]urea]
24 | 3.71 | Cc1cc(OCc2ccccc2CNC(=O)Nc2cc(C(C)(C)C)nn2-c2cccc(Cl)c2)c(Br)c(=O)n1Cc1ccccc1 [Example 108, 1-(2-{[(1-benzyl-3-bromo-6-methyl-2-oxo-1,2-dihydropyridin-4-yl)oxy]methyl}benzyl)-3-[3-tert-butyl-1-(3-chlorophenyl)-1H-pyrazol-5-yl]urea]
